# In patent US20190255040A1, “COMPOSITION AND METHOD FOR TOPICAL JS-K AS THERAPY FOR ACTINIC KERATOSIS” (JSK THERAPEUTICS, INC, priority 2018, published 2019):
# Tests used:
# [1] = system: human squamous skin carcinoma Cells (HatCat cells); assay: Suppression of the growth in culture of human squamous skin carcinoma cells; format: cell-based; conditions: growth over a two-day period (FIG. 1), read-out: IC50 for suppressing growth of human squamous skin carcinoma cells
# Description: FIG. 1 is a scatter plot illustrating the growth of human squamous skin carcinoma cells (HatCat 5K-Cells [10 μM]) over a two-day period;
# Referring to FIG. 1, JS-K at 12 mg/mL in […] of acetone was active in suppressing the growth in culture of human squamous skin carcinoma Cells (HatCat cells) with IC50 concentrations <1000 nM, compared to no effect from dimethylsulfoxide (DMSO) or P1223 pluronic micellesAfd.
# [2] = system: UV-induced skin damage in SKH1 mice; assay: Animal efficacy for UV damage: UVB-exposed SKH1 mice, topical treatment, skin histology; format: in vivo
# Description: Eight week-old female SKH1 mice were used. There were 5 mice in the control (no treatment, no UV) group and 10 mice in each treatment group. Treated mice all received one exposure of 600 Joules/m2 of UVB.
# Immediately after UVB treatment, mice in each group were treated as follows: 200 uL of acetone only; JS-K at a concentration of 12 mg/mL in 200 uL of acetone; JS-K at a concentration of 6 mg/mL in 200 uL of acetone. Treatments were started immediately after UVB exposure and given twice (8 hours apart) on Day 1 and Day 2. On Day 3, mice were sacrificed and skin collected for histologic analysis.
# H&E staining was used (FIG. 2A) to evaluate the count of Sunburn Cells, which are keratinocytes undergoing UV-induced apoptosis. […] The differences with controls were statistically significant for the higher dose of JS-K (12 mg/mL).
# 8-OG is a marker of oxydative damage.
smiles,measurement,setting,value
"CCOC(=O)N1CCN(/[N+]([O-])=N/Oc2ccc([N+](=O)[O-])cc2[N+](=O)[O-])CC1 [JS-K, O2-(2,4-dinitrophenyl)1-[(4-ethoxycarbonyl)piperazin-1-yI]diazen-1-ium-1,2-diolate]",IC50,[1],< 1000 nM
same,"count of Sunburn Cells (keratinocytes undergoing UV-induced apoptosis), H&E staining","[2]; 600 Joules/m2 UVB, JS-K 6 or 12 mg/mL in 200 uL acetone topically twice daily Day 1-2, skin Day 3, significant only for 12 mg/mL",moderate decrease in the number of Sunburn Cells with a dose effect
same,"percent of cells positive for 8-oxoguanine (8-OG), immunohistochemistry","[2]; 600 Joules/m2 UVB, JS-K 6 or 12 mg/mL in 200 uL acetone twice daily Day 1-2, dose effect, significant for both doses",fewer cells from the mice treated with JS-K were positive for 8-OG
same,epidermal thickness of UV-exposed skin,"[2]; 600 Joules/m2 UVB, JS-K 6 or 12 mg/mL, 12 mg/mL markedly greater effect than 6 mg/mL",dose dependent JS-K effect on epidermal thickness
same,"toxicity, skin irritation, skin ulceration or infection with the treatments",[2]; topical JS-K 6 or 12 mg/mL in 200 uL acetone twice daily Day 1-2,"no evidence of toxicity, skin irritation, skin ulceration, or infection"
